Test results published in patent US7732449B2, “Inhibitors of cathepsin S” (IRM LLC, priority 2003, dated 2010).
Read-outs that look alike come from different tables or passages of the source.

Assays:
Assay type in all cases: biochemical
[1] = biological target: Cathepsin L (Homo sapiens, UniProt P07711); test: Cathepsin L inhibition, fluorogenic peptide substrate kinetic assay (selectivity); conditions: ratio of cathepsin L inhibition constant to cathepsin S inhibition constant
[2] = biological target: Cathepsin S (Homo sapiens, UniProt P25774); test: Cathepsin S inhibition, fluorogenic peptide substrate kinetic assay;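 note: cleavage rate of a coumarin-labelled peptide substrate (50 µM) read as fluorescence increase at Ex 380 nm and Em 450 nm, relative to inhibitor-free control reactions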
Chain of Cathepsin S (P25774 115-331, species assumed): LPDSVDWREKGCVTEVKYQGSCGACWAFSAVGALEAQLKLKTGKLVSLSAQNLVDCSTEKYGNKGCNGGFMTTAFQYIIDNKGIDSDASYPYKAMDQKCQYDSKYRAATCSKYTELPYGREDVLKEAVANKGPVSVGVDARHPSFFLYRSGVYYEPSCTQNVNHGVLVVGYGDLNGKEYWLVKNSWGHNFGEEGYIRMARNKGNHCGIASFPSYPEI

[3] = biological target: T1, Cathepsin K (Homo sapiens, UniProt P43235); test: Cathepsin K inhibition, fluorogenic peptide substrate kinetic assay (selectivity); conditions: ratio of cathepsin K inhibition constant to cathepsin S inhibition constant
T1 sequence (P43235 115-329): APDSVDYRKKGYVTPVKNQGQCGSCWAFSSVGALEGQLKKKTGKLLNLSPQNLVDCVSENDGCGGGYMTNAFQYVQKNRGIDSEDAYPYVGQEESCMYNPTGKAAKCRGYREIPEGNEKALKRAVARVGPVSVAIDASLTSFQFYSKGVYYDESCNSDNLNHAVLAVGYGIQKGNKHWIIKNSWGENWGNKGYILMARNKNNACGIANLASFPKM

[4] = biological target: Cathepsin B (Homo sapiens, UniProt P07858); test: Cathepsin B inhibition, fluorogenic peptide substrate kinetic assay (selectivity); conditions: ratio of cathepsin B inhibition constant to cathepsin S inhibition constant;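 note: value is the cathepsin B inhibition constant divided by the cathepsin S one, each from kinetic fluorescence readings (ex 380 nm, em 450 nm) of a 10 µM coumarin peptide substrate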
[5] = Cathepsin S inhibition constant, pH5.5, 20 minutes preincubation at room temperature, read-out: Ki Cat. S

Chain of Cathepsin L (P07711 114-333, species assumed): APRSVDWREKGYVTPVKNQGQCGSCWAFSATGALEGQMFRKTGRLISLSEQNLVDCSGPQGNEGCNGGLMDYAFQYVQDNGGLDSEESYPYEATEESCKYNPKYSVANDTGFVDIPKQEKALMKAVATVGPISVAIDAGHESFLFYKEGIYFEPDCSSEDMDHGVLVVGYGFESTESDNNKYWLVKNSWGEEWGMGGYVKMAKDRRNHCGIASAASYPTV

| Selectivity for Cat. S over Cat. L [1] | Ki [2] [µM] | Selectivity for Cat. S over Cat. K [3] | Selectivity for Cat. S over Cat. B [4] | Ki [2, 5] [µM] | SMILES |
| --- | --- | --- | --- | --- | --- |
| ++ (++, >100) | < 0.1 | +++ (+++, >1000) | +++ (+++, >1000) | – | CC(C)[C@@H](CNc1ccc(OC(F)(F)F)cc1)NC(=O)[C@@H](CC(=O)N1CCOCC1)c1ccc(Cl)cc1 [Example 42, 2-(S)-(4-Chloro-phenyl)-N-{2-methyl-1-(S)-[(4-trifluoromethoxy-phenylamino)-methyl]-propyl}-4-morpholin-4-yl-4-oxo-butyramide] |
| ++ (++, >100) | 0.1 to 1 | ++ (++, >100) | ++ (++, >100) | – | CC(C)[C@@H](CNc1ccc(OC(F)(F)F)cc1)NC(=O)[C@H](CC(=O)N1CCOCC1)c1ccc(Cl)cc1 [Example 43, 2-(R)-(4-Chloro-phenyl)-N-{2-methyl-1-(S)-[(4-trifluoromethoxy-phenylamino)-methyl]-propyl}-4-morpholin-4-yl-4-oxo-butyramide] |
| ++ (++, >100) | < 0.1 | ++ (++, >100) | +++ (+++, >1000) | – | O=C(N[C@H](CNc1ccc(OC(F)(F)F)cc1)c1ccccc1)[C@@H](CC(=O)N1CCOCC1)CC1CCCCC1 [Example 45, 2-(R)-Cyclohexylmethyl-4-morpholin-4-yl-4-oxo-N-[1-(S)-phenyl-2-(4-trifluoromethoxy-phenylamino)-ethyl]-butyramide] |
| ++ (++, >100) | – | +++ (+++, >1000) | +++ (+++, >1000) | < 0.1 | O=C(N[C@H](CNc1ccc(OC(F)(F)F)cc1)c1ccccc1)[C@H](CCC1CCCC1)CC(=O)N1CCOCC1 [Example 46, 2-(R)-(2-Cyclopentyl-ethyl)-4-morpholin-4-yl-4-oxo-N-[1-(S)-phenyl-2-(4-trifluoromethoxy-phenylamino)-ethyl]-butyramide] |
| ++ (++, >100) | – | + (+, >10) | ++ (++, >100) | 0.1 to 1 | O=C(N[C@H](CNc1ccc(OC(F)(F)F)cc1)c1ccccc1)[C@@H](CC(=O)N1CCOCC1)c1ccc(Cl)cc1 [Example 48, 2-(S)-(4-Chloro-phenyl)-4-morpholin-4-yl-4-oxo-N-[1-(S)-phenyl-2-(4-trifluoromethoxy-phenylamino)-ethyl]-butyramide] |
| + (+, >10) | – | + (+, >10) | + (+, >10) | 1 to 10 | Cc1cc(NCCNC(=O)[C@H](CCC(C)(C)C)CC(=O)N2CCOCC2)no1 [Example 49, (R)-5,5-Dimethyl-2-(2-morpholin-4-yl-2-oxo-ethyl)-hexanoic acid [2-(5-methyl-isoxazol-3-ylamino)-ethyl]-amide] |
| + (+, >10) | – | ++ (++, >100) | +++ (+++, >1000) | < 0.1 | C[C@@H](CNc1ccc(OC(F)(F)F)cc1)NC(=O)[C@@H](CC(=O)N1CCSCC1)CC1CCCCC1 [Example 51, 2-(R)-Cyclohexylmethyl-N-[1-(S)-methyl-2-(4-trifluoromethoxy-phenylamino)-ethyl]-4-oxo-4-thiomorpholin-4-yl-butyramide] |
| ++ (++, >100) | – | + (+, >10) | ++ (++, >100) | 0.1 to 1 | CC(=O)N1CCN(C(=O)C[C@@H](CC2CCCCC2)C(=O)N[C@@H](C)CNc2ccc(OC(F)(F)F)cc2)CC1 [Example 52, 4-(4-Acetyl-piperazin-1-yl)-2-(R)-cyclohexylmethyl-N-[1-(S)-methyl-2-(4-trifluoromethoxy-phenylamino)-ethyl]-4-oxo-butyramide] |
| ++ (++, >100) | 0.1 to 1 | ++ (++, >100) | ++ (++, >100) | – | COc1ccc([C@H](CC(=O)N2CCOCC2)C(=O)N[C@H](CNc2ccc(OC(F)(F)F)cc2)C(C)C)cc1 [Example 53, 2-(S)-(4-Methoxy-phenyl)-N-{2-methyl-1-(S)-[(4-trifluoromethoxy-phenylamino)-methyl]-propyl}-4-morpholin-4-yl-4-oxo-butyramide] |
| ++ (++, >100) | – | +++ (+++, >1000) | +++ (+++, >1000) | < 0.1 | C[C@@H](CN1CC(C)(C)c2cc(F)ccc21)NC(=O)[C@@H](CC(=O)N1CCOCC1)CC1CCCCC1 [Example 54, 2-(R)-Cyclohexylmethyl-N-[2-(5-fluoro-3,3-dimethyl-2,3-dihydro-indol-1-yl)-1-(S)-methyl-ethyl]-4-morpholin-4-yl-4-oxo-butyramide] |
| ++ (++, >100) | 0.1 to 1 | +++ (+++, >1000) | ++ (++, >100) | – | CC(C)[C@@H](CNc1ccc(OC(F)(F)F)cc1)NC(=O)[C@@H](CC(=O)N1CCOCC1)c1ccc(C(F)(F)F)cc1 [Example 55, N-{2-Methyl-1-(S)-[(4-trifluoromethoxy-phenylamino)-methyl]-propyl}-4-morpholin-4-yl-4-oxo-2-(S)-(4-trifluoromethyl-phenyl)-butyramide] |
| ++ (++, >100) | 0.1 to 1 | ++ (++, >100) | ++ (++, >100) | – | Cc1ccc([C@H](CC(=O)N2CCOCC2)C(=O)N[C@H](CNc2ccc(OC(F)(F)F)cc2)C(C)C)cc1 [Example 57, N-{2-Methyl-1-(S)-[(4-trifluoromethoxy-phenylamino)-methyl]-propyl}-4-morpholin-4-yl-4-oxo-2-(S)-p-tolyl-butyramide] |
| + (+, >10) | – | ++ (++, >100) | ++ (++, >100) | 0.1 to 1 | C[C@@H](CNc1ccc(OC(F)(F)F)cc1)NC(=O)[C@@H](CC(=O)N1CCS(=O)(=O)CC1)CC1CCCCC1 [Example 58, 2-(R)-Cyclohexylmethyl-4-(1,1-dioxo-thiomorpholin-4-yl)-N-[1-(S)-methyl-2-(4-trifluoromethoxy-phenylamino)-ethyl]-4-oxo-butyramide] |
| + (+, >10) | – | + (+, >10) | + (+, >10) | 1 to 10 | CCC1(O)CCCC(C[C@H](CC(=O)N2CCOCC2)C(=O)N[C@@H](C)CNc2ccc(OC(F)(F)F)cc2)C1 (stereo partly drawn) [Example 59, 2-(R)-(3-Ethyl-3-hydroxy-cyclohexylmethyl)-N-[1-(S)-methyl-2-(4-trifluoromethoxy-phenylamino)-ethyl]-4-morpholin-4-yl-4-oxo-butyramide] |
| + (+, >10) | 1 to 10 | + (+, >10) | + (+, >10) | – | C[C@@H](CNc1ccc(OC(F)(F)F)cc1)NC(=O)[C@@H](CC(=O)N1CCOCC1)c1ccc(C(F)(F)F)cc1 [Example 60, N-[1-(S)-Methyl-2-(4-trifluoromethoxy-phenylamino)-ethyl]-4-morpholin-4-yl-4-oxo-2-(S)-(4-trifluoromethyl-phenyl)-butyramide] |
| + (+, >10) | – | + (+, >10) | + (+, >10) | 1 to 10 | C[C@@H](CNc1ccc(OC(F)(F)F)cc1)NC(=O)[C@@H](CC(=O)N1CCOCC1)c1ccccc1 [Example 61, N-[1-(S)-Methyl-2-(4-trifluoromethoxy-phenylamino)-ethyl]-4-morpholin-4-yl-4-oxo-2-(S)-phenyl-butyramide] |
| ++ (++, >100) | – | ++ (++, >100) | ++ (++, >100) | 0.1 to 1 | C[C@@H](CNc1ccc(OC(F)(F)F)cc1)NC(=O)[C@@H](CC(=O)N1CCOCC1)c1ccc(F)cc1 [Example 62, 2-(S)-(4-Fluoro-phenyl)-N-[1-(S)-methyl-2-(4-trifluoromethoxy-phenylamino)-ethyl]-4-morpholin-4-yl-4-oxo-butyramide] |
| ++ (++, >100) | – | ++ (++, >100) | ++ (++, >100) | 0.1 to 1 | COc1ccc([C@H](CC(=O)N2CCOCC2)C(=O)N[C@@H](C)CNc2ccc(OC(F)(F)F)cc2)cc1 [Example 63, 2-(S)-(4-Methoxy-phenyl)-N-[1-(S)-methyl-2-(4-trifluoromethoxy-phenylamino)-ethyl]-4-morpholin-4-yl-4-oxo-butyramide] |
| + (+, >10) | – | + (+, >10) | ++ (++, >100) | 0.1 to 1 | COc1ccc(NC[C@@H](NC(=O)[C@@H](CC(=O)N2CCOCC2)c2ccc(F)cc2)C(C)C)cn1 [Example 64, 2-(S)-(4-Fluoro-phenyl)-N-{1-(S)-[(6-methoxy-pyridin-3-ylamino)-methyl]-2-methyl-propyl}-4-morpholin-4-yl-4-oxo-butyramide] |
| ++ (++, >100) | – | ++ (++, >100) | ++ (++, >100) | 0.1 to 1 | C[C@@H](CNc1ccc(OC(F)(F)F)cc1)NC(=O)[C@@H](CC(=O)N1CCOCC1)CC1CCC2(CC1)CC2 [Example 65, N-[1-(S)-Methyl-2-(4-trifluoromethoxy-phenylamino)-ethyl]-4-morpholin-4-yl-4-oxo-2-(R)-spiro[2.5]oct-6-ylmethyl-butyramide] |
